US10526319B2, “Halogenated quinazolin-THF-amines as PDE1 inhibitors” (H. Lundbeck A/S, priority 2014, dated 2020)

Tests used:
Assay type in all cases: biochemical
Conditions in all cases: 15 nM tritium labelled cAMP, 1 h at room temperature
[1] = target: PDE1A (Homo sapiens, UniProt P54750); assay: PDE1 inhibition assay (SPA, tritium labelled cAMP), PDE1A
Procedure: (§1) PDE1A, PDE1B and PDE1C assays were performed as follows: the assays was performed in 60 μL samples containing a fixed amount of the PDE1 enzym1 (sufficient to convert 20-25% of the cyclic nucleotide substrate), a buffer (50 mM HEPES pH 7.6; 10 mM MgCl2; 0.02% Tween20), 0.1 mg/ml BSA, 15 nM tritium labelled cAMP and varying amounts of inhibitors. Reactions were initiated by addition of the cyclic nucleotide substrate, and reactions were allowed to proceed for 1 h at room temperature before being terminated through mixing with 20 μL (0.2 mg) yttrium silicate SPA beads (PerkinElmer). The beads were allowed to settle for 1 h in the dark before the plates were counted in a Wallac 1450 Microbeta counter. The measured signals were converted to activity relative to an uninhibited control (100%) and IC50 values were calculated using XlFit (model 205, IDBS).

[2] = target: PDE1B (Homo sapiens, UniProt Q01064); assay: PDE1 inhibition assay (SPA, tritium labelled cAMP), PDE1B
Procedure: as §1

[3] = target: PDE1C (Homo sapiens, UniProt Q14123); assay: PDE1 inhibition assay (SPA, tritium labelled cAMP), PDE1C
Procedure: as §1

Chain of PDE1A (P54750 whole entry): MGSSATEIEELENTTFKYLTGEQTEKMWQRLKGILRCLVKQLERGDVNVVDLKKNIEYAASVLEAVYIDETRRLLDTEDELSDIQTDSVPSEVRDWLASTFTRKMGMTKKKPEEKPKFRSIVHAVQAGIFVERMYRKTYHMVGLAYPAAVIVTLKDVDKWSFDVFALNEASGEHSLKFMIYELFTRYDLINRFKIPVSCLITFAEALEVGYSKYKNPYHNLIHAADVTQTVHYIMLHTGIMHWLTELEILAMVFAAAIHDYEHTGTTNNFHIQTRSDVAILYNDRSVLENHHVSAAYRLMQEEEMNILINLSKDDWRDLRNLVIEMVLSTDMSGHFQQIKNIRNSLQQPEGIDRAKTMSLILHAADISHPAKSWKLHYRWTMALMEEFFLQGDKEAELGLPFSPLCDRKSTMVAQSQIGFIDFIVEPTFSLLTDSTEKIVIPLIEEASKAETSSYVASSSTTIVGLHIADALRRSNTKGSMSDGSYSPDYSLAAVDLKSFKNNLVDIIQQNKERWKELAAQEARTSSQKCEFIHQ
Chain of PDE1B (Q01064 whole entry): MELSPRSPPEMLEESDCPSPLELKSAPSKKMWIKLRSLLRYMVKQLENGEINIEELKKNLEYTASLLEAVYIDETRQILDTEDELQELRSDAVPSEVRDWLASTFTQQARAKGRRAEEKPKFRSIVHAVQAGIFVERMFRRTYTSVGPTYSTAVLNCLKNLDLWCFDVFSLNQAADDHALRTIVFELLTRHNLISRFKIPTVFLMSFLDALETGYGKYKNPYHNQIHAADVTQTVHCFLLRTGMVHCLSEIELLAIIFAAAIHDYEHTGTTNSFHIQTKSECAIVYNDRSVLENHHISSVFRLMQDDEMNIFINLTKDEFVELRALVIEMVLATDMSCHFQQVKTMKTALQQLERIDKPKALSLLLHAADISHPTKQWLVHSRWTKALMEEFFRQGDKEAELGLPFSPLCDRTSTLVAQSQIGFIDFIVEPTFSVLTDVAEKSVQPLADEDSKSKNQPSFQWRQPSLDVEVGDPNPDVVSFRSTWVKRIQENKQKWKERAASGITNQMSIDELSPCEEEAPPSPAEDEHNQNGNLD
Chain of PDE1C (Q14123 whole entry): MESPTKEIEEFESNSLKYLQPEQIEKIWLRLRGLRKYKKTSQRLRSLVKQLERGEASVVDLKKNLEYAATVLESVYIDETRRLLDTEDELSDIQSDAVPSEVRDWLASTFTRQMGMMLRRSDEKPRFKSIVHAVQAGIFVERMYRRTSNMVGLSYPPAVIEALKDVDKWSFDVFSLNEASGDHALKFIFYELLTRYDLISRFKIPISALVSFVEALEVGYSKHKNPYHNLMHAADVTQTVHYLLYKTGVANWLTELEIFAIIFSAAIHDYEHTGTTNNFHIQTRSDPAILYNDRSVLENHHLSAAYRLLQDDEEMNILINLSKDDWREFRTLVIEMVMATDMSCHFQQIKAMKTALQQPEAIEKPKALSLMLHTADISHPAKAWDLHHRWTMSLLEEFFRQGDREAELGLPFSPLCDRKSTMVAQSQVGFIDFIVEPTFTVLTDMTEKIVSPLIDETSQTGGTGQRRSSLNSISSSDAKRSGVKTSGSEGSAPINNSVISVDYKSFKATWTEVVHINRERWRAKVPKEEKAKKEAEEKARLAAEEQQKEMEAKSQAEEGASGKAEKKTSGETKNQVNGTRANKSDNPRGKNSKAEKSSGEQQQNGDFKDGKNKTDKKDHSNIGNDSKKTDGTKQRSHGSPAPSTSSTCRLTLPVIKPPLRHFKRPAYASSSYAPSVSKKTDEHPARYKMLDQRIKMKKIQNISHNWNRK

| Structure (SMILES) | IC50 [1] [nM] | IC50 [2] [nM] | IC50 [3] [nM] |
| --- | --- | --- | --- |
| COc1ccc2c(NC3(C)CCOC3)ncnc2c1F (single isomer, unassigned) [1 Stereoisomer 2] | 250 | 65 | 260 |
| COc1ccc2c(N(C)C3CCOC3C)ncnc2c1Cl (single isomer, unassigned) [14 Stereoisomer 3] | 1530 | 490 | 200 |
| COc1ccc2c(NC3(C)CCOC3C)ncnc2c1F (single isomer, unassigned) [17 Stereoisomer 4] | 408 | 140 | 440 |
| COc1ccc2c(N(C)C3(C)CCOC3C)ncnc2c1F (single isomer, unassigned) [19 Stereoisomer 4] | 97 | 10 | 34 |
| COc1ccc2c(N(C)C3(C)CCOC3C)ncnc2c1Cl (single isomer, unassigned) [13 Stereoisomer 2] | 207 | 34 | 17 |
| COc1ccc2c(N(C)C3CCOC3C)ncnc2c1Cl (single isomer, unassigned) [14 Stereoisomer 4] | 285 | 30 | 14 |
| COc1ccc2c(NC3(C)CCOC3C)ncnc2c1Cl (single isomer, unassigned) [12 Stereoisomer 3] | 145 | 21 | 14 |
| COc1ccc2c(NC3CCOC3C)ncnc2c1F (single isomer, unassigned) [3 Stereoisomer 4] | 600 | 120 | 410 |
| COc1ccc2c(N(C)C3(C)CCOC3C)ncnc2c1F (single isomer, unassigned) [19 Stereoisomer 2] | 185 | 32 | 55 |
| COc1ccc2c(N(C)C3(C)CCOC3)ncnc2c1Cl (single isomer, unassigned) [11 Stereoisomer 2] | 152 | 31 | 15 |
| COc1ccc2c(NC3CCOC3C)ncnc2c1Cl (single isomer, unassigned) [5 stereoisomer 3] | 1500 | 460 | 250 |
| COc1ccc2c(NC3(C)CCOC3C)ncnc2c1Cl (single isomer, unassigned) [12 Stereoisomer 2] | 286 | 65 | 38 |
| COc1ccc2c(N(C)C3(C)CCOC3)ncnc2c1F (single isomer, unassigned) [15 Stereoisomer 2] | 333 | 47 | 81 |
| COc1ccc2c(NC3CCOC3C)ncnc2c1F (single isomer, unassigned) [3 Stereoisomer 2] | 420 | 87 | 260 |
| COc1ccc2c(NC3(C)CCOC3C)ncnc2c1Cl (single isomer, unassigned) [12 Stereoisomer 1] | 853 | 200 | 130 |
| COc1ccc2c(N(C)C3CCOC3)ncnc2c1Cl (single isomer, unassigned) [6 stereoisomer 2] | 150 | 15 | 11 |
| COc1ccc2c(NC3(C)CCOC3)ncnc2c1F (single isomer, unassigned) [1 Stereoisomer 1] | 50 | 9.9 | 28 |
| COc1ccc2c(N(C)C3(C)CCOC3)ncnc2c1Cl (single isomer, unassigned) [11 Stereoisomer 1] | 292 | 65 | 33 |
| COc1ccc2c(NC3CCOC3C)ncnc2c1Cl (single isomer, unassigned) [5 stereoisomer 4] | 450 | 58 | 36 |
| COc1ccc2c(NC3CCOC3)ncnc2c1Cl (single isomer, unassigned) [4 Stereoisomer 2] | 190 | 45 | 33 |
| COc1ccc2c(N(C)C3CCOC3C)ncnc2c1F (single isomer, unassigned) [18 Stereoisomer 1] | 1730 | 510 | 1100 |
| COc1ccc2c(NC3CCOC3C)ncnc2c1Cl (single isomer, unassigned) [5 stereoisomer 2] | 230 | 37 | 35 |
| COc1ccc2c(N3CC[C@@H]4OCCC43)ncnc2c1Br (single isomer, unassigned) [10 Stereoisomer 2] |  |  | 210 |
| COc1ccc2c(N(C)C3(C)CCOC3C)ncnc2c1F (single isomer, unassigned) [19 Stereoisomer 1] | 229 | 32 | 86 |
| COc1ccc2c(NC3CCOC3C)ncnc2c1F (single isomer, unassigned) [3 Stereoisomer 3] | 530 | 70 | 310 |

| Structure (SMILES) | IC50 [1] [nM] | IC50 [2] [nM] | IC50 [3] [nM] |
| --- | --- | --- | --- |
| COc1ccc2c(NC3(C)CCOC3)ncnc2c1Cl (single isomer, unassigned) [7 stereoisomer 2] | 490 | 75 | 48 |
| COc1ccc2c(NC3CCOC3C)ncnc2c1F (single isomer, unassigned) [3 Stereoisomer 1] | 1900 | 650 | 1800 |
| COc1ccc2c(N3CC[C@@H]4OCCC43)ncnc2c1Br (single isomer, unassigned) [10 Stereoisomer 1] | 147 | 49 | 11 |
| COc1ccc2c(N(C)C3CCOC3C)ncnc2c1Cl (single isomer, unassigned) [14 Stereoisomer 2] | 170 | 18 | 10 |
| COc1ccc2c(N3CC[C@@H]4OCCC43)ncnc2c1F (single isomer, unassigned) [8 Stereoisomer 1] | 72 | 21 | 60 |
| COc1ccc2c(N(C)C3CCOC3C)ncnc2c1Cl (single isomer, unassigned) [14 Stereoisomer 1] | 2640 | 510 | 200 |
| COc1ccc2c(N(C)C3CCOC3)ncnc2c1F (single isomer, unassigned) [2 Stereoisomer 1] | 1100 | 300 | 1300 |
| COc1ccc2c(N3CC[C@@H]4OCCC43)ncnc2c1F (single isomer, unassigned) [8 Stereoisomer 2] | 4030 | 2200 | 2500 |
| COc1ccc2c(NC3(C)CCOC3C)ncnc2c1F (single isomer, unassigned) [17 Stereoisomer 3] | 451 | 100 | 390 |
| COc1ccc2c(N(C)C3CCOC3)ncnc2c1F (single isomer, unassigned) [2 Stereoisomer 2] | 100 | 18 | 76 |
| COc1ccc2c(N(C)C3CCOC3C)ncnc2c1F (single isomer, unassigned) [18 Stereoisomer 2] | 2470 | 550 | 1400 |
| COc1ccc2c(N(C)C3(C)CCOC3C)ncnc2c1Cl (single isomer, unassigned) [13 Stereoisomer 1] | 2550 | 410 | 200 |
| COc1ccc2c(N3CC[C@@H]4OCCC43)ncnc2c1Cl (single isomer, unassigned) [9 Stereoisomer 1] | 156 | 40 | 23 |
| COc1ccc2c(NC3CCOC3)ncnc2c1F (single isomer, unassigned) [16 Stereoisomer 1] | 1180 | 430 | 1200 |
| COc1ccc2c(NC3(C)CCOC3C)ncnc2c1Cl (single isomer, unassigned) [12 Stereoisomer 4] | 76 | 7 | 4 |
| COc1ccc2c(NC3CCOC3C)ncnc2c1Cl (single isomer, unassigned) [5 stereoisomer 1] | 300 | 49 | 27 |
| COc1ccc2c(NC3(C)CCOC3C)ncnc2c1F (single isomer, unassigned) [17 Stereoisomer 1] | 184 | 27 | 98 |
| COc1ccc2c(NC3CCOC3)ncnc2c1F (single isomer, unassigned) [16 Stereoisomer 2] | 315 | 81 | 230 |
| COc1ccc2c(N(C)C3(C)CCOC3C)ncnc2c1F (single isomer, unassigned) [19 Stereoisomer 3] | 2490 | 420 | 1200 |
| COc1ccc2c(N(C)C3(C)CCOC3)ncnc2c1F (single isomer, unassigned) [15 Stereoisomer 1] | 688 | 110 | 320 |
| COc1ccc2c(N(C)C3(C)CCOC3C)ncnc2c1Cl (single isomer, unassigned) [13 Stereoisomer 4] | 300 | 26 | 13 |
| COc1ccc2c(N(C)C3CCOC3C)ncnc2c1F (single isomer, unassigned) [18 Stereoisomer 3] | 200 | 47 | 87 |
| COc1ccc2c(NC3CCOC3)ncnc2c1Cl (single isomer, unassigned) [4 Stereoisomer 1] | 790 | 310 | 200 |
| COc1ccc2c(N(C)C3CCOC3)ncnc2c1Cl (single isomer, unassigned) [6 stereoisomer 1] | 1800 | 330 | 140 |
